Patent US11731967B2, “Inhibitors of TRIM33 and methods of use” (Dana-Farber Cancer Institute, Inc., priority 2017, dated 2023)
Like-named read-outs stand apart in the source and are kept apart here.

How the values were obtained:
[1] = system: recombinant PHD-bromodomain module of TRIM33; test: AlphaScreen binding assay, TRIM33 with biotinylated H3K9me3K18ac peptide; conditions: compounds shown in Table 2a
Description: (§1) The IC50 or EC50 of the compound of the present application can be determined by various methods known in the art. For example, the IC50 or EC50 of the compound of the present application can be measured by an AlphaScreen assay, as described herein (see FIG. 1).
(§2) A compound of the present application can be tested for its TRIM33 and/or TRIM24 activity with AlphaScreen Assay illustrated in FIG. 1.
(§3) Additionally, a second AlphaScreen® binding assay for TRIM24 as counter-screening assay for selectivity of TRIM33 over TRIM24 was developed. A focused compound libraries for TRIM33 inhibitor development was designed and synthesized using the design principle that is to connect the bromodomain binding motif/fragment to proper chemical scaffold via multi-component reactions, such as Groebke-Blackburn-Bienaymé (GBB) coupling reaction, to establish chemically bias library.
(§4) With multiple libraries synthesized (˜400 compounds) as described above, compounds were screened against TRIM33 and TRIM24 by AlphaScreen to establish structure activity relationship (SAR).

[2] = biological target: T1, recombinant PHD-bromodomain module of TRIM33 (Homo sapiens, UniProt Q9UPN9); test: as above
T1 construct: rows headed: TRIM33 modulating activity; unit not given
T1 sequence (Q9UPN9 1-1127): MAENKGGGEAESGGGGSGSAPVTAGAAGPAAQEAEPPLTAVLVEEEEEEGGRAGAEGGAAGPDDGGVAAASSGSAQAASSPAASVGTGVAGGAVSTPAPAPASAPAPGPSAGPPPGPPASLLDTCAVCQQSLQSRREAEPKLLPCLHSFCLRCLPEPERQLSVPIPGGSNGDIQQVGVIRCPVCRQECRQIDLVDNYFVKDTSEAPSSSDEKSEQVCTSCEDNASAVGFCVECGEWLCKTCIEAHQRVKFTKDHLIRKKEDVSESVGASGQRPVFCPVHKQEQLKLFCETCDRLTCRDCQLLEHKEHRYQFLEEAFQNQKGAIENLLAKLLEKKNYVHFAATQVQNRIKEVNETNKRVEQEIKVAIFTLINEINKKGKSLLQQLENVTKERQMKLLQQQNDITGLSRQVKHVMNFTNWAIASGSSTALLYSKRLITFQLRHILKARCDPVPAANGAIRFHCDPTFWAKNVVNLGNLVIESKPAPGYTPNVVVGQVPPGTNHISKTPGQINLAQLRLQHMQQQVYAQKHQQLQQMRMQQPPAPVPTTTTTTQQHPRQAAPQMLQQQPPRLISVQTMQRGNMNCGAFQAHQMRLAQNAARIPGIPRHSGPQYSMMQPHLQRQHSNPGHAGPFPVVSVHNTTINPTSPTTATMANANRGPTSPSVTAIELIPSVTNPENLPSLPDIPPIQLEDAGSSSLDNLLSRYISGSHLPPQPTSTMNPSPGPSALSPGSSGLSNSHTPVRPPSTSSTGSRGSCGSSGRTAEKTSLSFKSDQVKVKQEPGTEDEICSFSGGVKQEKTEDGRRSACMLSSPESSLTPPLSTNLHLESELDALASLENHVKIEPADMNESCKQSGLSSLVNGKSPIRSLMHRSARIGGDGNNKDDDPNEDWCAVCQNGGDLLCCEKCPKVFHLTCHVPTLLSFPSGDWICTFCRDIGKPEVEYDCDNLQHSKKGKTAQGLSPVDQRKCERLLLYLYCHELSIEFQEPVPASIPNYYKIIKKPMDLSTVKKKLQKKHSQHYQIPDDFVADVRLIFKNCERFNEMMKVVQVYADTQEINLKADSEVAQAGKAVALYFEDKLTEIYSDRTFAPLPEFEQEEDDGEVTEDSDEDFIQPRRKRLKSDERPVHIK
Description: as §1, §2, §3, §4

TRIM24 = biological target: T2, TRIM24 (Homo sapiens, UniProt O15164); test: AlphaScreen binding assay for TRIM24 (counter-screening assay)
T2 sequence (O15164 1-1050): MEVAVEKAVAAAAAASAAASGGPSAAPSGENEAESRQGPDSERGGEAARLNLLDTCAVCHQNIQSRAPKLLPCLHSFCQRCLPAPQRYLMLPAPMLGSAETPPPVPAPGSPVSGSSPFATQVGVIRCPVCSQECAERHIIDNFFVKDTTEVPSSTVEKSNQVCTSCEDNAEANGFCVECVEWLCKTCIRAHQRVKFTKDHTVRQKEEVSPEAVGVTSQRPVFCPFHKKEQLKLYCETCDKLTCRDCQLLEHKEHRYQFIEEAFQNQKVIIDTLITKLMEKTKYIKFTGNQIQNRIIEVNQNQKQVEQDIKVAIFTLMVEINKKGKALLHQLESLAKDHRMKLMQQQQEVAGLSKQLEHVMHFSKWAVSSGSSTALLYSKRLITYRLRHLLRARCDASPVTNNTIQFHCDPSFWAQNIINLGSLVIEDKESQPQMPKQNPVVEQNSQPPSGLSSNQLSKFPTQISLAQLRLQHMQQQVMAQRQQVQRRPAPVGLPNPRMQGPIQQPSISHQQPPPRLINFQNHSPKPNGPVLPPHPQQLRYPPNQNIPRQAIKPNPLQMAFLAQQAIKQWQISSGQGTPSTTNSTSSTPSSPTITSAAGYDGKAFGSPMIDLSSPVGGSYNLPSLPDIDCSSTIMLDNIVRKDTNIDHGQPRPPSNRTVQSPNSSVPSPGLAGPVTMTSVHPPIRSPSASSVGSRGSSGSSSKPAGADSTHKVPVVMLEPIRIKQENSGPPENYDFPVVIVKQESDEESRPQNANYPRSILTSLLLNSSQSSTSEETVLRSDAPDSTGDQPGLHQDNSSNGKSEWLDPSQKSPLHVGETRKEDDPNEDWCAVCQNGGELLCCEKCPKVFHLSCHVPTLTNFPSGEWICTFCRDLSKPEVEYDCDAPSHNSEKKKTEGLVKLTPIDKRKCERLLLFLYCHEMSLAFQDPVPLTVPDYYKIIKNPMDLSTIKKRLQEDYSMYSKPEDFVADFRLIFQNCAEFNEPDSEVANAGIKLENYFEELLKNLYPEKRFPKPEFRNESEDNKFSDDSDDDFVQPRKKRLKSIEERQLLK
Description: as §2, §3, §4

[3] = compounds shown in Table 2a, called TRIM33 IC50 in title of Table 5, unit inferred, read-out: TRIM33 modulating activity
[4] = compounds with R7/R7′ shown in FIG. 11A (Table 6), read-out: IC50 TRIM33
[5] = compounds shown in FIG. 13A (Table 7), read-out: TRIM 33 IC50
[6] = compounds shown in FIG. 13A (Table 7), read-out: TRIM 24 IC50
[7] = compounds shown in FIG. 14A (Table 8), read-out: TRIM 33 IC50
[8] = compounds shown in FIG. 14A (Table 8), read-out: TRIM 24 IC50

| Structure (SMILES) | Ratio of TRIM24 IC50 over TRIM33 IC50 [1] | IC50 [2, 3] [µM] | also measured |
| --- | --- | --- | --- |
| COCCNc1c(-c2nc[nH]c2C)nc2ccc(Br)cn12 [Compound F9] | 3.62 | 37 |  |
| COc1ccc(CCNc2c(-c3c[nH]c(C)n3)nc3ccc(Br)cn23)cc1OC [Compound E8] | 18.38 | 3.46 |  |
| Cc1sc2c(c1C)C(c1ccc(Cl)cc1)=N[C@@H](CC(=O)NCCCCCCCCNC(=O)COc1cccc3c1C(=O)N(C1CCC(=O)NC1=O)C3=O)c1nnc(C)n1-2 (stereo partly drawn) [dBET6, reference compound] |  |  | IC50 [2, 4]: 4.69 µM; IC50 (TRIM24; compounds with R7/R7′ shown in FIG. 11A (Table 6), read-out: IC50 TRIM24): 1.96 µM |
| COCCNc1c(-c2nc[nH]c2C)nc2ccc(C(=O)OC)cn12 [Compound F3] | 11.61 | 44 |  |
| CCOC(=O)CNc1c(-c2ccco2)nc2ccc(C(=O)OC)cn12 [pck-9295-035] |  |  | IC50 [2, 5]: 10.8 µM; IC50 (TRIM24; [6]): 5.25 µM |
| Cc1[nH]cnc1-c1nc2ccc(Br)cn2c1NCCN1CCOCC1 [Compound F10] | 4.48 | 26.2 |  |
| COCCNc1c(-c2ccc3nccn3c2)nc2ccc(C(=O)OC)cn12 [Compound G3] | 78.61 | 357 |  |
| CCCOc1ccn2c(C(C)=O)cc(-c3nc4ccc(C(=O)OC)cn4c3NCCOC)c2c1 [Compound H3] | 37.43 | 77 |  |
| CCCOc1ccn2c(C(C)=O)cc(-c3nc4ccc(C(=O)OC)cn4c3NC3CCCCC3)c2c1 [Compound H1] | 7.82 | 32.6 |  |
| Brc1ccc2nc(-c3ccc4nccn4c3)c(NCCN3CCOCC3)n2c1 [Compound G10] | 6.43 | 214 |  |
| COc1ccc(CCNc2c(-c3ccc4nccn4c3)nc3ccccn23)cc1OC [Compound C2] | 60.92 | 24.9 |  |
| COc1ccc(CCNc2c(-c3nc(C)n4ccccc34)nc3ccccn23)cc1OC [pck-9295-173] |  |  | IC50 [2, 7]: 44.3 µM; IC50 (TRIM24; [8]): 9.44 µM |
| COc1ccc(CCNc2c(-c3c[nH]c(C)n3)nc3cnccn23)cc1OC [Compound A8] |  | 269 |  |
| COc1ccc(Nc2c(-c3nc[nH]c3C)nc3ccccn23)cc1 [pck-9295-014] |  |  | IC50 [2, 5]: 0.641 µM; IC50 (TRIM24; [6]): 0.356 µM |
| COCCNc1c(-c2ccco2)nc2ccc(C(=O)OC)cn12 [pck-9295-032] |  |  | IC50 [2, 5]: 21.8 µM |
| COc1ccc(CCNc2c(-c3cn(S(=O)(=O)c4ccc(C)cc4)c4ccccc34)nc3ccccn23)cc1OC [pck-9295-174] |  |  | IC50 [2, 7]: 0.553 µM; IC50 (TRIM24; [8]): 0.584 µM |

| Structure (SMILES) | Ratio of TRIM24 IC50 over TRIM33 IC50 [1] | IC50 [2, 3] [µM] | also measured |
| --- | --- | --- | --- |
| COc1ccc(Nc2c(-c3c[nH]c(C)n3)nc3ccc(Br)cn23)cc1 [pck-9295-016] |  |  | IC50 [2, 5]: 0.538 µM; IC50 (TRIM24; [6]): 0.818 µM |
| COC(=O)c1ccc2nc(-c3nc[nH]c3C)c(NC3CCCCC3)n2c1 [Compound F1] | 7.89 | 18.1 |  |
| COCCNc1c(-c2c[nH]c(C)n2)nc2cnccn12 [Compound A9] | 321.31 | 286 |  |
| CC(C)(C)Nc1c(-c2c(O)ccc3ccccc23)nc2ccccn12 [pck-9295-029] |  |  | IC50 [2, 5]: 7.45 µM; IC50 (TRIM24; [6]): 7.76 µM |
| Cc1[nH]cnc1-c1nc2cnccn2c1NC1CCCCC1 [Compound B7] | 0.78 | 116 |  |
| CCCOc1ccn2c(C(C)=O)cc(-c3nc4ccc(C(=O)OC)cn4c3NCCc3ccc(OC)c(OC)c3)c2c1 [Compound H2] | 463.20 | 12.2 |  |
| COC(=O)c1ccc2nc(-c3nc[nH]c3C)c(NCCN3CCOCC3)n2c1 [pck-9295-060] |  |  | IC50 [2, 7]: 1.93 µM; IC50 (TRIM24; [8]): 0.308 µM |
| CCCOc1ccn2c(C(C)=O)cc(-c3nc4cnccn4c3NCCOC)c2c1 [Compound D9] | 20.66 | 138 |  |
| CCCOc1ccn2c(C(C)=O)cc(-c3ccccc3S(C)(=O)=O)c2c1 [GS-A, reference compound] |  | 50.9 |  |
| Brc1ccc2nc(-c3ccc4nccn4c3)c(NC3CCCCC3)n2c1 [Compound G7] | 0.83 | 121 |  |
| COC(=O)c1ccc2nc(-c3cn(S(=O)(=O)c4ccc(C)cc4)c4ccccc34)c(NCc3ccccc3)n2c1 [pck-9295-175] |  |  | IC50 [2, 7]: 0.32 µM; IC50 (TRIM24; [8]): 0.415 µM |
| CCCOc1cc(OCCCCN(C)C)cc(Oc2cc3c(cc2NS(=O)(=O)c2ccc(OC)c(OC)c2)n(C)c(=O)n3C)c1 [IACS9571, reference compound] |  | 10.6 | IC50 [2, 7]: 6.32 µM; IC50 [2, 4]: 13.4 µM |
| Cc1[nH]cnc1-c1nc2ccccn2c1NCCN1CCOCC1 [pck-9295-013] |  |  | IC50 [2, 5]: 3.78 µM; IC50 (TRIM24; [6]): 0.746 µM |
| COc1ccc(CCNc2c(-c3c[nH]c(C)n3)nc3ccccn23)cc1OC [Compound A2] | 32.77 | 1.36 |  |
| COC(=O)c1ccc2nc(-c3nc[nH]c3C)c(NCCc3ccc(OC)c(OC)c3)n2c1 [Compound F2] | 29.84 | 12.6 |  |
